Data on 13 compounds can be found in PubChem BioAssay (NCI).

“And” between values parts separate entries of the source, which are not always exact repeats. Equal entries are not always repeated.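 Values below derive from 48-hour exposures of cells grown in 96-well plates, with endpoints linearly interpolated between the two concentrations bracketing the appropriate inhibition level. At the GI50, growth is halved. The concentration for full growth arrest is given as TGI.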

Assay in all cases: inhibition of tumour cell growth, NCI panel, 48 h
The test system of test [1] is HOP-92 NSCLC.
Test [2] has as its system HT29 colon.
Test [3] concerns NCI-H522 lung.
Test [4] has as its system OVCAR-3 ovarian.
Test [5] deals with SF-268 CNS.
The test system of test [6] is SK-MEL-28 melanoma.
The test system of test [7] is SK-MEL-5 melanoma.
The subject of test [8] is SN12C renal.
In test [9] the test system is NCI/ADR-RES ovarian.

For `C=CN1C(=O)OC(c2ccccc2)C1c1ccccc1` (stereo not drawn), the GI50 in test [1], in [2], in test [3], in test [4], in [5] and in [6] was over 100 µM in each case. Moreover, the GI50 in test [7] and in [8] was over 100 µM in each case. Besides, the TGI in test [1], in [2], in test [3], in test [4], in [5] and in [6] was over 100 µM throughout. In addition, the TGI in [7] and in test [8] was over 100 µM throughout.

On to `Cc1cnc[nH]c1=O`, for which the TGI in [2], in [3], in test [4], in test [5], in test [6] and in test [7] was over 100 µM each time. This compound also had a TGI in test [8] of over 100 µM.

Consider `CCOc1ccc2[nH]c3c(C)c4cc[n+](C)cc4c(C)c3c2c1`, for which the TGI in test [1] is 13.1 µM and 25.3 µM; in [2], 28.4 µM and 32.7 µM; in test [3], 3.05 µM and 3.57 µM; in test [4], 22.5 µM and 51.7 µM; in test [5] it was 0.605 µM and 1.18 µM; in [6], 7.9 µM and 13 µM. For the same compound, the TGI was 4.37 µM and 4.31 µM in test [7]; 1.25 µM and 2.69 µM in [8].

With `Cc1cc(C)cc(-n2c3nc(=O)n(C)c(=O)c-3nc3ccccc32)c1`, the TGI in test [2] is 41.3 µM; in test [3], 44.2 µM; in test [4], 12.6 µM; in test [5], over 100 µM; in [7], 30.8 µM; in test [8] it was 76.4 µM.

As for `Cc1c[nH]c2c1C13CC1CN(C(=O)c1cc4cc(NC(=O)c5cc6ccccc6o5)ccc4[nH]1)C3=CC2=O` (stereo not drawn), the GI50 in test [1], in [2], in test [3], in [9], in test [4] and in test [5] was over 1.17 ng/mL throughout. In addition, the GI50 in [7] and in [8] was over 1.17 ng/mL each time. For the same compound, the TGI in test [2] is 0.143 µM; in test [3], under 0.001 µM; in test [5] it was under 0.001 µM; in [7], under 0.001 µM; in test [8], under 0.001 µM.

With `Cc1cc(NS(=O)(=O)c2ccc(Nc3c4ccccc4nc4c(C(=O)Nc5ccc(S(=O)(=O)N=C(N)N)cc5)cccc34)cc2)no1`, the TGI in test [1], in [2], in test [3], in test [4], in [5] and in test [6] was over 100 µM throughout. Further, the TGI in test [7] and in test [8] was over 100 µM throughout.

Take `CCOC(=O)C1N(S(=O)(=O)c2ccc(C)cc2)CCC12c1ccccc1N(C(C)=O)C2C(/C=C/C(=O)OC)=C/C(=O)OC` (stereo not drawn): the TGI in test [1], in test [2], in test [3], in test [4], in test [5] and in test [6] was over 100 µM throughout. Besides, the TGI in [7] and in test [8] was over 100 µM in each case.

`C[Si](C)(C)/C=C/CCC(C=O)(CCCl)c1ccccc1` (stereo not drawn): the TGI is 89.1 µM in test [1]; 36 µM in test [2]; 35.6 µM in test [3]; 38.1 µM in [4]; over 100 µM in [5]; over 100 µM in [6]. Moreover, the TGI in [7] is 33.9 µM; in [8] it was over 100 µM.

`O=C(CC(=O)N1N=C(c2ccccc2)C(N=Nc2ccc(C(=O)O)cc2)C1=O)Nc1ccc(F)cc1` (stereo not drawn): the TGI in test [1] is over 100 µM; in test [2], over 100 µM; in [3], 33.3 µM; in test [4] it was 56.2 µM; in [5], over 100 µM; in [6], over 100 µM. For the same compound, the TGI is 46.9 µM in test [7] and over 100 µM in [8].

Regarding `CN(C(=O)C1(C(=O)C=[N+]=[N-])CC1)c1ccccc1`, the TGI in test [2], in test [3], in [9], in test [4], in test [5] and in test [6] was over 100 µM throughout. Also, the TGI in test [7] and in [8] was over 100 µM each time.

Turning to `COC(=O)/C=C/C(=O)C1C(C(=O)OC)C2(C(=O)OC)CCC1(C(=O)OC)N2` (stereo not drawn), the TGI in test [2], in [4], in [5], in [6] and in test [7] was over 100 µM each time.

With `CC1(O)C=CC2CCC1C2O` (stereo not drawn), the TGI in [2] was over 100 µM; in [3], over 100 µM; in [4], over 100 µM; in [5] it was 93.7 µM; in test [6] it was over 100 µM; in test [7] it was over 100 µM. Moreover, in [8], the TGI is over 100 µM.

On to `COC(=O)C[CH](C(=O)OC)[Ge]([CH3])([CH3])[S]c1ccccc1` (stereo not drawn), for which the GI50 in test [1] is 48.6 µM; in test [2], 18.6 µM; in test [3] it was 2.94 µM; in test [4], 15.1 µM; in test [5] it was 18.7 µM; in [6] it was 23.3 µM. The results for the GI50 in [7] and in test [8] were 33.1 µM and 16 µM, respectively. For the same compound, the TGI in [1] is 95.8 µM; in test [2] it was 38.5 µM; in [3] it was 10.3 µM; in test [4], 38.8 µM; in test [5], 64.1 µM; in [6] it was 65.7 µM. Moreover, the values for the TGI in test [7] and in test [8] were over 100 µM and 32 µM, respectively.
